The values that follow come from PubChem BioAssay AID1259407 (Chemical Carcinogenesis Research Information System (CCRIS), 2018).

Each structure is given as a SMILES string. Active and inactive are the calls of the source. No rule for the calls is given here.

The subject of this series is CCRIS mutagenicity, Ames/micronucleus/aberration tests. In words: CCRIS mutagenicity studies.
The mark [1] stands for this setting: Test System: AMES SALMONELLA TYPHIMURIUM, Strain/Indicator: TA100, Metabolic Activation: S-9, Method: STANDARD PLATE.
[2] abbreviates: Test System: AMES SALMONELLA TYPHIMURIUM, Strain/Indicator: TA98, Metabolic Activation: NONE, Method: STANDARD PLATE.
Where [3] appears, read: Test System: AMES SALMONELLA TYPHIMURIUM, Strain/Indicator: TA100, Metabolic Activation: NONE, Method: STANDARD PLATE.
Where [4] appears, read: Test System: Ames Salmonella typhimurium, Strain/Indicator: TA98, Metabolic Activation: None, Method: Preincubation.
[5] abbreviates: Test System: Ames Salmonella typhimurium, Strain/Indicator: TA98, Metabolic Activation: Rat, Liver, S-9, Phenobarbital and 5,6-benzoflavone, Method: Preincubation.
The mark [6] stands for this setting: Test System: Ames Salmonella typhimurium, Strain/Indicator: TA100, Metabolic Activation: None, Method: Preincubation.
Where [7] appears, read: Test System: Ames Salmonella typhimurium, Strain/Indicator: TA100, Metabolic Activation: Rat, Liver, S-9, Phenobarbital and 5,6-benzoflavone, Method: Preincubation.
[8] abbreviates: Test System: Ames Salmonella typhimurium, Strain/Indicator: TA1535, Metabolic Activation: None, Method: Preincubation.
[9] abbreviates: Test System: Ames Salmonella typhimurium, Strain/Indicator: TA1535, Metabolic Activation: Rat, Liver, S-9, Phenobarbital and 5,6-benzoflavone, Method: Preincubation.
[10] abbreviates: Test System: Ames Salmonella typhimurium, Strain/Indicator: TA1537, Metabolic Activation: None, Method: Preincubation.
Where [11] appears, read: Test System: Ames Salmonella typhimurium, Strain/Indicator: TA1537, Metabolic Activation: Rat, Liver, S-9, Phenobarbital and 5,6-benzoflavone, Method: Preincubation.
Where [12] appears, read: Test System: E. coli, Strain/Indicator: WP2uvrA/pKM101, Metabolic Activation: None, Method: Preincubation.
[13] abbreviates: Test System: E. coli, Strain/Indicator: WP2uvrA/pKM101, Metabolic Activation: Rat, Liver, S-9, Phenobarbital and 5,6-benzoflavone, Method: Preincubation.
Where [14] appears, read: Test System: AMES SALMONELLA TYPHIMURIUM, Strain/Indicator: TA98, Metabolic Activation: NONE, Method: PREINCUBATION

Regarding `CC(C)C(=O)N=c1sn(C(=O)C(C)C)c2ccc([N+](=O)[O-])cc12`, under setting [1], the mutagenic call is “active; positive”.
As for `Brc1c2ccccc2cc2c1ccc1ccccc12`, the mutagenic call (Test System: AMES SALMONELLA TYPHIMURIUM, Strain/Indicator: TA100, Metabolic Activation: RAT, LIVER, S-9, PCB, Method: STANDARD PLATE) was “active; positive”.
As for `N#Cc1cccc(/C=C\c2ccc([N+](=O)[O-])cc2)c1`, the mutagenic call (Test System: AMES SALMONELLA TYPHIMURIUM, Strain/Indicator: TA98(NR), Metabolic Activation: NONE, Method: STANDARD PLATE) was “active; positive”; the mutagenic call (Test System: AMES SALMONELLA TYPHIMURIUM, Strain/Indicator: TA98 (NR), Metabolic Activation: S-9, Method: STANDARD PLATE) is “active; positive”; the mutagenic call under setting [2] is “active; positive”; the mutagenic call (Test System: AMES SALMONELLA TYPHIMURIUM, Strain/Indicator: TA98, Metabolic Activation: S-9, Method: STANDARD PLATE) was “active; positive”; the mutagenic call (Test System: AMES SALMONELLA TYPHIMURIUM, Strain/Indicator: TA100 (NR), Metabolic Activation: NONE, Method: STANDARD PLATE) is “inactive; negative”; the mutagenic call (Test System: AMES SALMONELLA TYPHIMURIUM, Strain/Indicator: TA100 (NR), Metabolic Activation: S-9, Method: STANDARD PLATE) is “inactive; negative”. The mutagenic call runs as follows: under setting [3], “active; positive”; under setting [1], “active; positive”.
Regarding `Oc1cc2c3c(cc4cccc5ccc1c3c54)-c1ccccc1-2`, the mutagenic call (Test System: AMES SALMONELLA TYPHIMURIUM, Strain/Indicator: TA100, Metabolic Activation: RAT, LIVER, S-9, AROCLOR 1254, Method: STANDARD PLATE) is “inactive; negative”.
As for `O=C1OC(O)C(Cl)=C1Cl` (stereo not given), the mutagenic call is “active; positive” under setting [3] and “active; positive” (Test System: UDS RAT HEPATOCYTES, Strain/Indicator: THYMIDINE INCORPORATION, Metabolic Activation: NONE, Method: AUTORADIOGRAPHY).
For `Cc1cc2ccccc2c2cc3c(cc12)C=C[C@H](O)[C@H]3O`, under “Test System: AMES SALMONELLA TYPHIMURIUM, Strain/Indicator: TA100, Metabolic Activation: RAT, LIVER, S-9, AROCLOR 1254, Method: PREINCUBATION”, the mutagenic call was “active; positive”.
Regarding `CC12C=CC(C1)C1C(=O)OC(=O)C12` (stereo not given), the mutagenic call under setting [4] is “inactive; negative”; the mutagenic call under setting [5] is “inactive; negative”; the mutagenic call under setting [6] is “inactive; negative”; the mutagenic call under setting [7] is “inactive; negative”; the mutagenic call under setting [8] is “inactive; negative”; the mutagenic call under setting [9] is “inactive; negative”. Also, the mutagenic call under setting [10] is “inactive; negative”, the mutagenic call under setting [11] is “inactive; negative”, the mutagenic call under setting [12] was “inactive; negative” and the mutagenic call under setting [13] is “inactive; negative”.
For the compound `COCOC`, the mutagenic call by setting is: (Test System: Mouse lymphoma, Strain/Indicator: L5178Y (tk+/tk-), Metabolic Activation: None, Method: Suspension/plate) “inactive; negative”; (Test System: Mouse lymphoma, Strain/Indicator: L5178Y (tk+/tk-), Metabolic Activation: Rat, Liver, S-9, Aroclor 1254, Method: Suspension/plate) “inactive; negative”.
Turning to `CCC(C)CO` (stereo not given), the mutagenic call (Test System: CHINESE HAMSTER V-79, Strain/Indicator: V-79 (HPRT)/6-THIOGUANINE, Metabolic Activation: NONE, Method: STANDARD PLATE) was “inactive; negative” and the mutagenic call (Test System: CHINESE HAMSTER V-79, Strain/Indicator: V-79 (HPRT)/6-THIOGUANINE, Metabolic Activation: RAT LIVER S-9, Method: STANDARD PLATE) was “inactive; negative”.
In the case of `Cc1c(C)c2c(Cl)c3ccccc3nc2c2ccccc12`, the mutagenic call is “active; positive” (Test System: AMES SALMONELLA TYPHIMURIUM, Strain/Indicator: TA97, Metabolic Activation: NONE, Method: PREINCUBATION); “active; positive” (Test System: AMES SALMONELLA TYPHIMURIUM, Strain/Indicator: TA97, Metabolic Activation: NONE, Method: STANDARD PLATE); “active; positive” under setting [14]; “active; positive” (Test System: AMES SALMONELLA TYPHIMURIUM, Strain/Indicator: TA1537, Metabolic Activation: NONE, Method: PREINCUBATION).
`[Cl][Rh-2]([Cl])([Cl])([Cl])[Cl]`: the mutagenic call is, setting by setting: (Test System: AMES SALMONELLA TYPHIMURIUM, Strain/Indicator: TA97A, Metabolic Activation: NONE, Method: STANDARD PLATE) “inactive; negative”; (Test System: AMES SALMONELLA TYPHIMURIUM, Strain/Indicator: TA97A, Metabolic Activation: RAT, LIVER, S-9, PHENOBARBITAL AND 5,6-BENZOFLAVONE, Method: STANDARD PLATE) “active; positive”; (Test System: AMES SALMONELLA TYPHIMURIUM, Strain/Indicator: TA97A, Metabolic Activation: RAT, LIVER, S-9, PHENOBARBITAL AND BETA-NAPHTHOFLAVONE, Method: STANDARD PLATE) “active; positive”; under setting [2], “active; positive”; (Test System: AMES SALMONELLA TYPHIMURIUM, Strain/Indicator: TA98, Metabolic Activation: RAT, LIVER, S-9, PHENOBARBITAL AND 5,6-BENZOFLAVONE, Method: STANDARD PLATE) “active; positive”; (Test System: AMES SALMONELLA TYPHIMURIUM, Strain/Indicator: TA98, Metabolic Activation: RAT, LIVER, S-9, PHENOBARBITAL AND BETA-NAPHTHOFLAVONE, Method: STANDARD PLATE) “active; positive”. Further, the mutagenic call reads like this: under setting [3], “inactive; negative”; (Test System: AMES SALMONELLA TYPHIMURIUM, Strain/Indicator: TA100, Metabolic Activation: RAT, LIVER, S-9, PHENOBARBITAL AND 5,6-BENZOFLAVONE, Method: STANDARD PLATE) “active; positive”; (Test System: AMES SALMONELLA TYPHIMURIUM, Strain/Indicator: TA100, Metabolic Activation: RAT, LIVER, S-9, PHENOBARBITAL AND BETA-NAPHTHOFLAVONE, Method: STANDARD PLATE) “active; positive”; (Test System: AMES SALMONELLA TYPHIMURIUM, Strain/Indicator: TA102, Metabolic Activation: NONE, Method: STANDARD PLATE) “active; positive”; (Test System: AMES SALMONELLA TYPHIMURIUM, Strain/Indicator: TA102, Metabolic Activation: RAT, LIVER, S-9, PHENOBARBITAL AND 5,6-BENZOFLAVONE, Method: STANDARD PLATE) “active; positive”; (Test System: AMES SALMONELLA TYPHIMURIUM, Strain/Indicator: TA102, Metabolic Activation: RAT, LIVER, S-9, PHENOBARBITAL AND BETA-NAPHTHOFLAVONE, Method: STANDARD PLATE) “active; positive”.
`N#CC(C#N)=Cc1ccc([N+](=O)[O-])o1`: the mutagenic call under setting [14] is “active; positive”.
With `c1ccc([C@@H]2CO2)cc1`, the mutagenic call is, setting by setting: (Test System: AMES SALMONELLA TYPHIMURIUM, Strain/Indicator: TA100, Metabolic Activation: NONE) “active; positive”; under setting [3], “active; positive”.
With `O=C(C(Cl)Cl)C(Cl)Cl`, the mutagenic call runs as follows: under setting [2], “active; positive”; under setting [3], “active; positive”.
In the case of `Cc1nc2cc(C)c3c(nc(N)n3C)c2nc1C`, the mutagenic call (Test System: AMES SALMONELLA TYPHIMURIUM, Strain/Indicator: TA98, Metabolic Activation: RAT, LIVER, S-9, AROCLOR 1254, Method: STANDARD PLATE) is “active; positive”.
Regarding `O=C1NC(=O)c2ccccc21`, the mutagenic call is “inactive; negative” under setting [4]; “inactive; negative” under setting [5]; “inactive; negative” under setting [6]; “inactive; negative” under setting [7]; “inactive; negative” under setting [8]; “inactive; negative” under setting [9]. Further, the mutagenic call is “inactive; negative” under setting [10], “inactive; negative” under setting [11], “inactive; negative” under setting [12] and “inactive; negative” under setting [13].
